{"source": "patent US12454529B2", "about": "“Piperazine cyclic ureas” (SIRONAX LTD., priority 2020, dated 2025)", "data": [{"test_system": "HT-29 cells", "experiment": "HT-29 cell necrosis/necroptosis inhibition (TNF-α + SMAC mimetic + zVAD-FMK; CellTiter-Glo cell viability)", "type": "cell-based", "settings": "HT-29 cells, TNF-α 10 ng/ml + SMAC mimetic 6 μM + zVAD-FMK 10 μM, 20 hours; geometric mean, 10 points in duplicate; read-out: EC50 (Cell activity; Necrosis/Necroptosis Inhibitory Activity, Compounds 143-323)", "how_it_was_run": "(§1)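 Necroptosis was driven by TNF-α 10 ng/ml plus SMAC mimetic 6 μM and zVAD-FMK 10 μM in serum-free medium, with compounds as a 10-point threefold titration. After 20 h at 37 °C, ATP-based luminescence was read; EC50 values are geometric means of duplicate curves.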", "units": {"EC50": "nM"}, "values": [{"molecule": "Cc1nc(C)n(-c2nc(N3CCN(C(=O)N4N=CCC4c4ncc(C)s4)CC3)ncc2F)n1", "note": "(stereo not shown) [Compound 231, (4-(4-(3,5-dimethyl-1H-1,2,4-triazol-1-yl)-5-fluoropyrimidin-2-yl)piperazin-1-yl)(5-(5-methylthiazol-2-yl)-4,5-dihydro-1H-pyrazol-1-yl)methanone]", "EC50": "0.1 to 100"}, {"molecule": "Cc1nc(C)n(-c2nc(N3CCN(C(=O)N4N=CCC4c4cnc(C)s4)CC3)ncc2F)n1", "note": "(stereo not shown) [Compound 214, (4-(4-(3,5-dimethyl-1H-1,2,4-triazol-1-yl)-5-fluoropyrimidin-2-yl)piperazin-1-yl)(5-(2-methylthiazol-5-yl)-4,5-dihydro-1H-pyrazol-1-yl)methanone]", "EC50": "0.1 to 100"}]}, {"test_system": "HT-29 cells", "experiment": "HT-29 cell necrosis/necroptosis inhibition (TNF-α + SMAC mimetic + zVAD-FMK; CellTiter-Glo cell viability)", "type": "cell-based", "settings": "Homo sapiens, HT-29, 20 h, read-out: EC50 (Cell activity; Necrosis/Necroptosis Inhibitory Activity, Compounds 1-142)", "how_it_was_run": "as §1", "units": {"EC50": "nM"}, "values": [{"molecule": "Cc1nnnn1-c1ccnc(N2CCN(C(=O)N3N=CC[C@H]3c3cncc(F)c3)CC2)n1", "note": "[Compound 26, (S)-(5-(5-fluoropyridin-3-yl)-4,5-dihydro-1H-pyrazol-1-yl)(4-(4-(5-methyl-1H-tetrazol-1-yl)pyrimidin-2-yl)piperazin-1-yl)methanone]", "EC50": "0.1 to 100"}, {"molecule": "CCn1nc(C)c(-c2nc(N3CCN(C(=O)N4N=CC[C@H]4c4cc(F)cc(F)c4)CC3)ncc2F)c1C", "note": "[Compound 117, (S)-(5-(3,5-difluorophenyl)-4,5-dihydro-1H-pyrazol-1-yl)(4-(4-(1-ethyl-3,5-dimethyl-1H-pyrazol-4-yl)-5-fluoropyrimidin-2-yl)piperazin-1-yl)methanone]", "EC50": "0.1 to 100"}]}, {"test_system": "HT-29 cells", "experiment": "HT-29 cell necrosis/necroptosis inhibition (TNF-α + SMAC mimetic + zVAD-FMK; CellTiter-Glo cell viability)", "type": "cell-based", "settings": "Homo sapiens; HT-29 cells, TNF-α 10 ng/ml + SMAC mimetic 6 μM + zVAD-FMK 10 μM, 20 hours; geometric mean, 10 points in duplicate; read-out: EC50 (Cell activity; Necrosis/Necroptosis Inhibitory Activity, Compounds 1-142)", "how_it_was_run": "as §1", "units": {"EC50": "nM"}, "values": [{"molecule": "Cc1nn(C)c(C)c1-c1nc(N2CCN(C(=O)N3N=CC[C@H]3c3cc(F)cc(F)c3)CC2)ncc1F", "note": "[Compound 58, (S)-(5-(3,5-difluorophenyl)-4,5-dihydro-1H-pyrazol-1-yl)(4-(5-fluoro-4-(1,3,5-trimethyl-1H-pyrazol-4-yl)pyrimidin-2-yl)piperazin-1-yl)methanone]", "EC50": "0.1 to 100"}, {"molecule": "Cc1cnn(C)c1-c1cc(N2CCN(C(=O)N3N=CC[C@H]3c3cc(F)cc(F)c3)CC2)ncc1F", "note": "[Compound 114, (S)-(5-(3,5-difluorophenyl)-4,5-dihydro-1H-pyrazol-1-yl)(4-(4-(1,4-dimethyl-1H-pyrazol-5-yl)-5-fluoropyridin-2-yl)piperazin-1-yl)methanone]", "EC50": "0.1 to 100"}, {"molecule": "Cc1cc(-c2nc(N3CCN(C(=O)N4N=CC[C@H]4c4cc(F)cc(F)c4)CC3)ccc2F)n(C)n1", "note": "[Compound 115, (S)-(5-(3,5-difluorophenyl)-4,5-dihydro-1H-pyrazol-1-yl)(4-(6-(1,3-dimethyl-1H-pyrazol-5-yl)-5-fluoropyridin-2-yl)piperazin-1-yl)methanone]", "EC50": "0.1 to 100"}, {"molecule": "Cc1nn(CCO)c(C)c1-c1nc(N2CCN(C(=O)N3N=CC[C@H]3c3cc(F)cc(C#N)c3)CC2)ncc1F", "note": "[Compound 124, (S)-3-fluoro-5-(1-(4-(5-fluoro-4-(1-(2-hydroxyethyl)-3,5-dimethyl-1H-pyrazol-4-yl)pyrimidin-2-yl)piperazine-1-carbonyl)-4,5-dihydro-1H-pyrazol-5-yl)benzonitrile]", "EC50": "0.1 to 100"}, {"molecule": "N#Cc1cc(F)cc([C@@H]2CC=NN2C(=O)N2CCN(c3ncc(F)c(-c4ncc[nH]4)n3)CC2)c1", "note": "[Compound 112, (S)-3-fluoro-5-(1-(4-(5-fluoro-4-(1H-imidazol-2-yl)pyrimidin-2-yl)piperazine-1-carbonyl)-4,5-dihydro-1H-pyrazol-5-yl)benzonitrile]", "EC50": "0.1 to 100"}, {"molecule": "Cc1nc(C#N)nn1-c1nc(N2CCN(C(=O)N3N=CC[C@H]3c3cc(F)cc(C#N)c3)CC2)ncc1F", "note": "[Compound 139, (S)-1-(2-(4-(5-(3-cyano-5-fluorophenyl)-4,5-dihydro-1H-pyrazole-1-carbonyl)piperazin-1-yl)-5-fluoropyrimidin-4-yl)-5-methyl-1H-1,2,4-triazole-3-carbonitrile]", "EC50": "0.1 to 100"}, {"molecule": "NC(=O)c1cnn(-c2ccnc(N3CCN(C(=O)N4N=CC[C@H]4c4cccc(F)c4)CC3)n2)c1", "note": "[Compound 17, (S)-1-(2-(4-(5-(3-fluorophenyl)-4,5-dihydro-1H-pyrazole-1-carbonyl)piperazin-1-yl)pyrimidin-4-yl)-1H-pyrazole-4-carboxamide]", "EC50": "0.1 to 100"}, {"molecule": "Cn1nccc1-c1nc(N2CCN(C(=O)N3N=CC[C@H]3c3cc(F)cc(F)c3)CC2)ncc1F", "note": "[Compound 28, (S)-(5-(3,5-difluorophenyl)-4,5-dihydro-1H-pyrazol-1-yl)(4-(5-fluoro-4-(1-methyl-1H-pyrazol-5-yl)pyrimidin-2-yl)piperazin-1-yl)methanone]", "EC50": "0.1 to 100"}, {"molecule": "N#Cc1cc(F)cc([C@@H]2CC=NN2C(=O)N2CCN(c3ncc(F)c(-n4cc(C#N)cn4)n3)CC2)c1", "note": "[Compound 127, (S)-1-(2-(4-(5-(3-cyano-5-fluorophenyl)-4,5-dihydro-1H-pyrazole-1-carbonyl)piperazin-1-yl)-5-fluoropyrimidin-4-yl)-1H-pyrazole-4-carbonitrile]", "EC50": "0.1 to 100"}, {"molecule": "Cc1nc(C)n(-c2nc(N3CCN(C(=O)N4N=CC[C@H]4c4cc(F)cc(C#N)c4)CC3)ncc2F)n1", "note": "[Compound 47, (S)-3-(1-(4-(4-(3,5-dimethyl-1H-1,2,4-triazol-1-yl)-5-fluoropyrimidin-2-yl)piperazine-1-carbonyl)-4,5-dihydro-1H-pyrazol-5-yl)-5-fluorobenzonitrile]", "EC50": "0.1 to 100"}, {"molecule": "Cc1[nH]nc(CO)c1-c1nc(N2CCN(C(=O)N3N=CC[C@H]3c3cc(F)cc(C#N)c3)CC2)ncc1F", "note": "[Compound 74, (S)-3-fluoro-5-(1-(4-(5-fluoro-4-(3-(hydroxymethyl)-5-methyl-1H-pyrazol-4-yl)pyrimidin-2-yl)piperazine-1-carbonyl)-4,5-dihydro-1H-pyrazol-5-yl)benzonitrile]", "EC50": "0.1 to 100"}]}, {"test_system": "HT-29 cells", "experiment": "HT-29 cell necrosis/necroptosis inhibition (TNF-α + SMAC mimetic + zVAD-FMK; CellTiter-Glo cell viability)", "type": "cell-based", "settings": "Homo sapiens; HT-29 cells, TNF-α 10 ng/ml + SMAC mimetic 6 μM + zVAD-FMK 10 μM, 20 hours; geometric mean, 10 points in duplicate; read-out: EC50 (Cell activity; Necrosis/Necroptosis Inhibitory Activity, Compounds 143-323)", "how_it_was_run": "as §1", "units": {"EC50": "nM"}, "values": [{"molecule": "CCn1cnn(-c2nc(N3CCN(C(=O)N4N=CC[C@H]4c4cc(F)cc(F)c4)CC3)ncc2F)c1=O", "note": "[Compound 199, (S)-2-(2-(4-(5-(3,5-difluorophenyl)-4,5-dihydro-1H-pyrazole-1-carbonyl)piperazin-1-yl)-5-fluoropyrimidin-4-yl)-4-ethyl-2,4-dihydro-3H-1,2,4-triazol-3-one]", "EC50": "0.1 to 100"}, {"molecule": "Cc1c(-c2nc(N3CCN(C(=O)N4N=CC[C@H]4c4cc(F)cc(F)c4)CC3)ncc2F)c(C(F)(F)F)nn1C", "note": "[Compound 198, (S)-(5-(3,5-difluorophenyl)-4,5-dihydro-1H-pyrazol-1-yl)(4-(4-(1,5-dimethyl-3-(trifluoromethyl)-1H-pyrazol-4-yl)-5-fluoropyrimidin-2-yl)piperazin-1-yl)methanone]", "EC50": "0.1 to 100"}, {"molecule": "CCn1cnn(-c2nc(N3CCN(C(=O)N4N=CC[C@H]4c4cc(F)cc(C#N)c4)CC3)ncc2F)c1=O", "note": "[Compound 200, (S)-3-(1-(4-(4-(4-ethyl-5-oxo-4,5-dihydro-1H-1,2,4-triazol-1-yl)-5-fluoropyrimidin-2-yl)piperazine-1-carbonyl)-4,5-dihydro-1H-pyrazol-5-yl)-5-fluorobenzonitrile]", "EC50": "0.1 to 100"}, {"molecule": "Cn1cnnc1-c1nc(N2CCN(C(=O)N3N=CC[C@H]3c3cc(F)cc(C#N)c3)CC2)ncc1F", "note": "[Compound 197, (S)-3-fluoro-5-(1-(4-(5-fluoro-4-(4-methyl-4H-1,2,4-triazol-3-yl)pyrimidin-2-yl)piperazine-1-carbonyl)-4,5-dihydro-1H-pyrazol-5-yl)benzonitrile]", "EC50": "1000 to 10000"}, {"molecule": "Cc1nn(-c2nc(N3CCN(C(=O)N4N=CC[C@H]4c4cc(F)cc(C#N)c4)CC3)ncc2F)c(C)c1NC(=O)CC1CC1", "note": "[Compound 195, (S)—N-(1-(2-(4-(5-(3-cyano-5-fluorophenyl)-4,5-dihydro-1H-pyrazole-1-carbonyl)piperazin-1-yl)-5-fluoropyrimidin-4-yl)-3,5-dimethyl-1H-pyrazol-4-yl)-2-cyclopropylacetamide]", "EC50": "0.1 to 100"}, {"molecule": "Cc1cnc(C2CC=NN2C(=O)N2CCN(c3ncc(F)c(-c4cnn(C)n4)n3)CC2)s1", "note": "(stereo not shown) [Compound 317, (4-(5-fluoro-4-(2-methyl-2H-1,2,3-triazol-4-yl)pyrimidin-2-yl)piperazin-1-yl)(5-(5-methylthiazol-2-yl)-4,5-dihydro-1H-pyrazol-1-yl)methanone]", "EC50": "100 to 1000"}, {"molecule": "Cc1nc(C2CC=NN2C(=O)N2CCN(c3nc(-c4c(C)cnn4C)ccc3F)CC2)cs1", "note": "(stereo not shown) [Compound 298, (4-(6-(1,4-dimethyl-1H-pyrazol-5-yl)-3-fluoropyridin-2-yl)piperazin-1-yl)(5-(2-methylthiazol-4-yl)-4,5-dihydro-1H-pyrazol-1-yl)methanone]", "EC50": "0.1 to 100"}, {"molecule": "O=C(N1CCN(c2ncc(F)c(-n3nccc3C(F)(F)F)n2)CC1)N1N=CC[C@H]1c1cc(F)cc(F)c1", "note": "[Compound 315, (S)-(5-(3,5-difluorophenyl)-4,5-dihydro-1H-pyrazol-1-yl)(4-(5-fluoro-4-(5-(trifluoromethyl)-1H-pyrazol-1-yl)pyrimidin-2-yl)piperazin-1-yl)methanone]", "EC50": "0.1 to 100"}, {"molecule": "Cc1nn(-c2cc(N3CCN(C(=O)N4N=CC[C@H]4c4cncc(F)c4)CC3)ncn2)c(C)c1Cl", "note": "[Compound 290, (S)-(4-(6-(4-chloro-3,5-dimethyl-1H-pyrazol-1-yl)pyrimidin-4-yl)piperazin-1-yl)(5-(5-fluoropyridin-3-yl)-4,5-dihydro-1H-pyrazol-1-yl)methanone]", "EC50": "0.1 to 100"}, {"molecule": "Cc1nc(C(F)(F)F)nn1-c1nc(N2CCN(C(=O)N3N=CC[C@H]3c3cc(F)cc(F)c3)CC2)ncc1F", "note": "[Compound 203, (S)-(5-(3,5-difluorophenyl)-4,5-dihydro-1H-pyrazol-1-yl)(4-(5-fluoro-4-(5-methyl-3-(trifluoromethyl)-1H-1,2,4-triazol-1-yl)pyrimidin-2-yl)piperazin-1-yl)methanone]", "EC50": "0.1 to 100"}]}]}
